Data taken from ChEMBL document CHEMBL1142254, “5'-Fluoro-5'-deoxyaristeromycin” (Bioorg Med Chem Lett, 2008).
The source made the active and inactive calls. No cut-off for these calls is given here.

Key:
HFF = assay: Cytotoxicity against human HFF cells; type: cell-based
Human respirovirus 3 = assay: Antiviral activity against Parainfluenza 3 virus; type: functional, organism-based
HeLa = assay: Cytotoxicity against human HeLa cells; type: cell-based
Vaccinia virus = assay: Antiviral activity against vaccinia virus; type: functional, organism-based; conditions: Orthopoxvirus vaccinia
MDCK = assay: Cytotoxicity against dog MDCK cells; type: cell-based, Canis lupus familiaris
[1] = tested on: Mammalian orthoreovirus 1; assay: Antiviral activity against Reovirus1; type: functional, organism-based
Human alphaherpesvirus 2 = assay: Antiviral activity against HSV2; type: functional, organism-based
unidentified adenovirus = assay: Antiviral activity against adenovirus; type: functional, organism-based
Punta Toro virus = assay: Antiviral activity against Punta Toro virus; type: functional, organism-based
HEL = assay: Cytotoxicity against human HEL cells; type: cell-based
Human alphaherpesvirus 1 [2] = assay: Antiviral activity against HSV1; type: functional, organism-based
Sindbis virus = assay: Antiviral activity against Sindbis virus; type: functional, organism-based
Measles morbillivirus [3] = assay: Antiviral activity against measles virus MO6 by visual assay; type: functional, organism-based
Cowpox virus = assay: Antiviral activity against Cowpox virus; type: functional, organism-based
Enterovirus = assay: Antiviral activity against rhinovirus; type: functional, organism-based
[4] = Cytotoxicity against human Huh7ET cells; type: cell-based; conditions: huh-7
Measles morbillivirus [5] = assay: Antiviral activity against measles virus MO6 by neutral red assay; type: functional, organism-based
A549 = assay: Cytotoxicity against human A549 cells; type: cell-based
Coxsackievirus B4 = assay: Antiviral activity against Coxsackie virus B4; type: functional, organism-based
[6] = tested on: Respiratory syncytial virus; assay: Antiviral activity against RSV; type: functional, organism-based
[7] = Cytotoxicity against cat CRFK cells; type: cell-based, Felis catus
Hepatitis C virus = assay: Antiviral activity against HCV; type: functional, organism-based; conditions: Hepacivirus hominis
West Nile virus = assay: Antiviral activity against West Nile virus; type: functional, organism-based
[8] = Cytotoxicity against rhesus monkey MA104 cells; type: cell-based, Macaca mulatta
Human alphaherpesvirus 1 [9] = assay: Antiviral activity against thymidine kinase deficient HSV1; type: functional, organism-based
[10] = Cytotoxicity against african green monkey CV1 cells; type: cell-based; conditions: chlorocebus aethiops, cv-1
[11] = tested on: Vesicular stomatitis virus; assay: Antiviral activity against in Vesicular stomatitis virus; type: functional, organism-based
Feline coronavirus = assay: Antiviral activity against Feline coronavirus; type: functional, organism-based
Vero = assay: Cytotoxicity against african green monkey Vero cells; type: cell-based; conditions: chlorocebus sabaeus

SMILES: Nc1ncnc2c1ncn2[C@@H]1C[C@H](CF)[C@@H](O)[C@H]1O
- Activity (HFF): Non-toxic
- Activity (Human respirovirus 3): inactive
- Activity (HeLa): Non-toxic
- Activity (Vaccinia virus): inactive
- Activity (MDCK): Non-toxic
- Activity [1]: inactive
- Activity (Human alphaherpesvirus 2): inactive
- Activity (unidentified adenovirus): inactive
- Activity (Punta Toro virus): inactive
- Activity (HEL): Non-toxic
- Activity (Human alphaherpesvirus 1 [2]): inactive
- Activity (Sindbis virus): inactive
- EC50 (Measles morbillivirus [3]): 13 µM
- Activity (Cowpox virus): inactive
- Activity (Enterovirus): inactive
- Activity [4]: Non-toxic
- EC50 (Measles morbillivirus [5]): 2.8 µM
- Activity (A549): Non-toxic
- Activity (Coxsackievirus B4): inactive
- Activity [6]: inactive
- Activity [7]: Non-toxic
- Activity (Hepatitis C virus): inactive
- Activity (West Nile virus): inactive
- Activity [8]: Non-toxic
- Activity (Human alphaherpesvirus 1 [9]): inactive
- Activity [10]: Non-toxic
- Activity [11]: inactive
- Activity (Feline coronavirus): inactive
- Activity (Vero): Non-toxic
